Measured values: US20040076968A1, “Method for detecting pre-disposition to hepatotoxicity” (priority 2000, published 2004)

Columns and labels:
UGT1A7 gene = assay: Association of UGT1A7 polymorphisms with liver function abnormality in tolcapone-treated patients (case-control genotyping); type: in vivo, human
From the text: Disease severity had already been controlled for by the original study inclusion criteria.
For all other single nucleotide polymorphisms (SNPs) discovery and genotyping was done by double-stranded DNA sequencing using an ABI capillary sequencer and Big Dye chemistry (ABI). The primers used to amplify all exons are shown below and were also used as sequencing primers. Publicly available genomic sequences were used as references for primer design. All polymorphisms were targeted with these pairs-of-primer sets:
Fourty nanograms of genomic DNA were PCR-amplified in 50 μl reactions using an automated PCR machine. Reaction conditions varied as follows. For the amplification of the UGT1A6-fragment conditions were as follows: 10 mM Tris pH 8.3, 50 mM KCl, 1.5 mM MgCl2, 0.2 mM of each dNTP, 0.4 μM of each primer and 1.5U Boehringer Taq Polymerase. The thermocycling protocol consisted of an initial incubation of 95° C. for 15 min. followed by 35 cycles of 94° C. for 1 min., 57° C. for 30 sec., 72° C. for 1 min., and one final extension step of 72° C. for 10 min. The UGT1A7-1 fragment was amplified using Qiagen PCR buffer with 1.5 mM MgCl2, 0.2 mM of each dNTP, 0.4 μM of each primer and 1.5U Boehringer Taq Polymerase. The thermocycling protocol was the same as for UGT1A6-fragment with one exception: the annealing temperature was 61° C. For UGT1A7-2 fragment PCR conditions were as follows: 150 mM Tris pH 8.5, 15 mM (NH4)2SO4, 3.5 mM MgCl2, 0.2 mM of each dNTP, 0.4 μM of each primer and 1.5U Qiagen Hot Start Taq Polymerase. Thermocycling was done using a touch-down PCR protocol. After an iniatial amplification of 95° C. for 10 min. followed 5 cycles of 95° C. for 1 min., 62° C. for 30 sec. (minus 0.5° C. per cycle), 72° C. for 1 min and thirty cycles of 95° C. for 1 min., 60° C. for 30 sec., 72° C. for 1 min. and a final extension step of 72° C. for 10 min. After PCR amplification fragments were purified using the Qiaquick PCR purification kit on a Biorobot 9600. Cycle sequencing was performed on an automated PCR machine using ABI Big Dye terminator chemistry according to the manufacturer's intruction with the following changes: 2.5-5 ng/100 bp of PCR product were mixed with 2 μl Big Dye terminatior mix, oligonucleotide primer concentration was 10 pmol, if necessary 5% DMSO was added to the reaction; the final reaction volume was 10 μl. Sequencing reactions were subjected to 28 cycles at 93° C. for 30 sec, 48° C. for 30 sec, and 58° C. for 120 sec., followed by an ethanol/NaOAc precipitation. After decanting the ethanol, samples were evaporated to dryness using a SpeedVac for 2 min. and were resuspended in 45 μl ultrapure water (MERCK, HPLC grade). […] were loaded on an ABI 3700 capillary sequencer using POP5 as a polymer. After sequencing, the polymorphism analyses were done using Polyphred software (licenced from University of Washington).
The patient samples were divided into two groups.
For each genotype, the following analyses were performed:
a) Analysis of the entire genotype: patients were classified according to the following three categories: homozygous 1/1 (two copies of allele 1 and no copies of allele 2), heterozygous 1/2 (one copy of allele 1 and one copy of allele 2) or homozygous 2/2 (no copies of allele 1 and two copies of allele 2). Analysis was conducted to assess whether there were differences in the proportion of case patients in each of these groups, compared with the proportion of control patients. The Cochran-Maentel-Hanszel (CMH) test was applied to the data presented in a 2-by-3 table (the two columns indicating presence or absence of liver function abnormality and the three rows indicating the three categories of the genotype).

[1] = human subjects; cited from earlier work

- n (%) of patients (UGT1A7 gene; UGT1A7_555 silent or Arg131Lys, Allele C Present, Liver Function Abnormality Present): 74 (56.1%)
- n (%) of patients (UGT1A7 gene; UGT1A7_555 silent or Arg131Lys, Genotype Heterozygous A/C, Liver Function Abnormality Absent): 124 (46.1%)
- n (%) of patients (UGT1A7 gene; UGT1A7_555 silent or Arg131Lys, Genotype Heterozygous A/C, Liver Function Abnormality Present): 60 (45.5%)
- n (%) of patients (UGT1A7 gene; UGT1A7_555 silent or Arg131Lys, Genotype Homozygous A/A, Liver Function Abnormality Absent): 96 (35.7%)
- n (%) of patients (UGT1A7 gene; UGT1A7_555 silent or Arg131Lys, Genotype Homozygous A/A, Liver Function Abnormality Present): 58 (43.9%)
- n (%) of patients (UGT1A7 gene; UGT1A7_555 silent or Arg131Lys, Genotype Homozygous G/G, Liver Function Abnormality Absent): 49 (18.2%)
- n (%) of patients (UGT1A7 gene; UGT1A7_555 silent or Arg131Lys, Genotype Homozygous G/G, Liver Function Abnormality Present): 14 (10.6%)
- n (%) of patients (UGT1A7 gene; UGT1A7_556 Arg131Lys or Gln, Allele A Absent, Liver Function Abnormality Absent): 49 (18.3%)
- n (%) of patients (UGT1A7 gene; UGT1A7_556 Arg131Lys or Gln, Allele A Absent, Liver Function Abnormality Present): 14 (10.6%)
- n (%) of patients (UGT1A7 gene; UGT1A7_556 Arg131Lys or Gln, Allele A Present, Liver Function Abnormality Absent): 219 (81.7%)
- n (%) of patients (UGT1A7 gene; UGT1A7_556 Arg131Lys or Gln, Allele A Present, Liver Function Abnormality Present): 118 (89.4%)
- n (%) of patients (UGT1A7 gene; UGT1A7_556 Arg131Lys or Gln, Allele G Absent, Liver Function Abnormality Absent): 96 (35.8%)
- n (%) of patients (UGT1A7 gene; UGT1A7_556 Arg131Lys or Gln, Allele G Absent, Liver Function Abnormality Present): 59 (44.7%)
- n (%) of patients (UGT1A7 gene; UGT1A7_556 Arg131Lys or Gln, Allele G Present, Liver Function Abnormality Absent): 172 (64.2%)
- n (%) of patients (UGT1A7 gene; UGT1A7_556 Arg131Lys or Gln, Allele G Present, Liver Function Abnormality Present): 73 (55.3%)
- n (%) of patients (UGT1A7 gene; UGT1A7_556 Arg131Lys or Gln, Genotype Heterozygous A/G, Liver Function Abnormality Absent): 123 (45.9%)
- n (%) of patients (UGT1A7 gene; UGT1A7_556 Arg131Lys or Gln, Genotype Heterozygous A/G, Liver Function Abnormality Present): 59 (44.7%)
- n (%) of patients (UGT1A7 gene; UGT1A7_556 Arg131Lys or Gln, Genotype Homozygous A/A, Liver Function Abnormality Absent): 96 (35.8%)
- n (%) of patients (UGT1A7 gene; UGT1A7_556 Arg131Lys or Gln, Genotype Homozygous A/A, Liver Function Abnormality Present): 44 (33.8%)
- n (%) of patients (UGT1A7 gene; UGT1A7_556 Arg131Lys or Gln, Genotype Homozygous G/G, Liver Function Abnormality Absent): 49 (18.3%)
- n (%) of patients (UGT1A7 gene; UGT1A7_556 Arg131Lys or Gln, Genotype Homozygous G/G, Liver Function Abnormality Present): 14 (10.6%)
- n (%) of patients (UGT1A7 gene; UGT1A7_786 Trp208Arg, Allele G Absent, Liver Function Abnormality Absent): 124 (46.3%)
- n (%) of patients (UGT1A7 gene; UGT1A7_786 Trp208Arg, Allele G Absent, Liver Function Abnormality Present): 46 (34.3%)
- n (%) of patients (UGT1A7 gene; UGT1A7_786 Trp208Arg, Allele G Present, Liver Function Abnormality Absent): 144 (53.7%)
- n (%) of patients (UGT1A7 gene; UGT1A7_786 Trp208Arg, Allele G Present, Liver Function Abnormality Present): 86 (65.7%)
- n (%) of patients (UGT1A7 gene; UGT1A7_786 Trp208Arg, Allele T Absent, Liver Function Abnormality Absent): 30 (11.2%)
- n (%) of patients (UGT1A7 gene; UGT1A7_786 Trp208Arg, Allele T Absent, Liver Function Abnormality Present): 26 (19.4%)
- n (%) of patients (UGT1A7 gene; UGT1A7_786 Trp208Arg, Allele T Present, Liver Function Abnormality Absent): 238 (88.8%)
- n (%) of patients (UGT1A7 gene; UGT1A7_786 Trp208Arg, Allele T Present, Liver Function Abnormality Present): 108 (80.6%)
- n (%) of patients (UGT1A7 gene; UGT1A7_786 Trp208Arg, Genotype Heterozygous T/C, Liver Function Abnormality Absent): 114 (42.5%)
- n (%) of patients (UGT1A7 gene; UGT1A7_786 Trp208Arg, Genotype Heterozygous T/C, Liver Function Abnormality Present): 62 (46.3%)
- n (%) of patients (UGT1A7 gene; UGT1A7_786 Trp208Arg, Genotype Homozygous C/C, Liver Function Abnormality Absent): 30 (11.2%)
- n (%) of patients (UGT1A7 gene; UGT1A7_786 Trp208Arg, Genotype Homozygous C/C, Liver Function Abnormality Present): 26 (19.4%)
- n (%) of patients (UGT1A7 gene; UGT1A7_786 Trp208Arg, Genotype Homozygous T/T, Liver Function Abnormality Absent): 124 (46.3%)
- n (%) of patients (UGT1A7 gene; UGT1A7_786 Trp208Arg, Genotype Homozygous T/T, Liver Function Abnormality Present): 46 (34.3%)
Compound: Cc1ccc(C(=O)c2cc(O)c(O)c([N+](=O)[O-])c2)cc1 [tolcapone]
- main pathway of elimination from the body [1]: glucuronidation
